Results: PubChem BioAssay (NCI)
“And” between values parts separate entries of the source, which are not always exact repeats. Equal entries are not always repeated.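 1) Cells in 96-well plates. 2) Compound, 48 h, 5 concentrations. 3) Linear interpolation between surrounding doses. 4) Unreached endpoint = highest concentration. GI50: concentration for 50% inhibition of growth. TGI denotes the concentration required for complete inhibition of growth.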

How the values were obtained:
Experiment in all cases: NCI-60 cell line screen, 48 h
[1] = tested on: 786-0 renal
[2] = tested on: A498 renal
[3] = tested on: A549 NSCLC
[4] = tested on: ACHN renal
[5] = tested on: BT-549 breast
[6] = tested on: CAKI-1 renal
[7] = tested on: CCRF-CEM leukemia
[8] = tested on: COLO 205 colon
[9] = tested on: DU-145 prostate
[10] = tested on: EKVX NSCLC
[11] = tested on: HCC-2998 colon
[12] = tested on: HCT-116 colon
[13] = tested on: HCT-15 colon
[14] = tested on: HL-60(TB) leukemia
[15] = tested on: HOP-62 NSCLC
[16] = tested on: HOP-92 NSCLC
[17] = tested on: HS 578T breast
[18] = tested on: HT29 colon
[19] = tested on: IGROV1 ovarian
[20] = tested on: K-562 leukemia
[21] = tested on: KM12 colon
[22] = tested on: LOX IMVI melanoma
[23] = tested on: M14 melanoma
[24] = tested on: MALME-3M melanoma
[25] = tested on: MCF7 breast
[26] = tested on: MDA-MB-231 breast
[27] = tested on: MDA-MB-435
[28] = tested on: MOLT-4 leukemia
[29] = tested on: NCI-H226 lung
[30] = tested on: NCI-H23 lung
[31] = tested on: NCI-H460 lung
[32] = tested on: NCI-H522 lung
[33] = tested on: NCI/ADR-RES ovarian
[34] = tested on: OVCAR-3 ovarian
[35] = tested on: OVCAR-4 ovarian
[36] = tested on: OVCAR-5 ovarian
[37] = tested on: OVCAR-8 ovarian
[38] = tested on: PC-3 prostate
[39] = tested on: RPMI-8226 leukemia
[40] = tested on: RXF 393 renal
[41] = tested on: SF-268 CNS
[42] = tested on: SF-295 CNS
[43] = tested on: SF-539 CNS
[44] = tested on: SK-MEL-2 melanoma
[45] = tested on: SK-MEL-28 melanoma
[46] = tested on: SK-MEL-5 melanoma
[47] = tested on: SK-OV-3 ovarian
[48] = tested on: SN12C renal
[49] = tested on: SNB-19 CNS
[50] = tested on: SNB-75 CNS
[51] = tested on: SR leukemia
[52] = tested on: SW-620 colon
[53] = tested on: T-47D breast
[54] = tested on: TK-10 renal
[55] = tested on: U251 CNS
[56] = tested on: UACC-257 melanoma
[57] = tested on: UACC-62 melanoma
[58] = tested on: UO-31 renal

## COc1cc2nccc(Oc3ccc(NC(=O)C4(C(=O)Nc5ccc(F)cc5)CC4)cc3)c2cc1OC
[1]
  GI50: > 10 µM and 5.52 µM
  TGI: > 54.9 µM
[2]
  GI50: 1.2 µM and 0.429 µM
  TGI: > 10 µM and 3.43 µM
[3]
  GI50: > 10 µM and 3.55 µM
  TGI: > 61.4 µM
[4]
  GI50: > 10 µM and 3.88 µM
  TGI: > 10 µM and 46.3 µM
[5]
  GI50: > 10 µM and 8.8 µM
  TGI: > 10 µM and 72.4 µM
[6]
  GI50: 5.87 µM and 3.61 µM
  TGI: > 10 µM and 40.9 µM
[7]
  GI50: > 10 µM and 3.65 µM
  TGI: > 100 µM
[8]
  GI50: 6 µM and 2.1 µM
  TGI: > 10 µM and 4.63 µM
[9]
  GI50: > 10 µM and 5.47 µM
  TGI: > 100 µM
[10]
  GI50: > 10 µM and 6.98 µM
  TGI: > 10 µM and 97.3 µM
[11]
  GI50: > 10 µM and 6.29 µM
  TGI: > 100 µM
[12]
  GI50: > 10 µM and 3.73 µM
  TGI: > 41.5 µM
[13]
  GI50: > 10 µM and 3.94 µM
  TGI: > 100 µM
[14]
  GI50: > 10 µM and 3.87 µM
  TGI: > 10 µM and 21.6 µM
[15]
  GI50: > 10 µM and 5.6 µM
  TGI: > 45.3 µM
[16]
  TGI: 8.01 µM and 1.46 µM
[17]
  GI50: 0.45 µM and 0.857 µM
  TGI: > 10 µM and 10.8 µM
[18]
  GI50: 7.71 µM and 2.74 µM
  TGI: > 10 µM and 20.4 µM
[19]
  GI50: 4.51 µM and 2.59 µM
  TGI: > 31 µM
[20]
  GI50: 2.15 µM and 0.281 µM
  TGI: > 10 µM and 2.82 µM
[21]
  GI50: 0.333 µM and 0.0482 µM
  TGI: > 100 µM
[22]
  GI50: 6.11 µM and 2.61 µM
  TGI: > 10 µM and 15.2 µM
[23]
  GI50: > 10 µM and 2.9 µM
  TGI: > 10 µM and 18.3 µM
[24]
  GI50: > 10 µM and 2.11 µM
  TGI: > 10 µM and 9.17 µM
[25]
  GI50: > 10 µM and 4.06 µM
  TGI: > 54.2 µM
[26]
  GI50: > 10 µM and 3.1 µM
  TGI: > 40.6 µM
[27]
  GI50: 7.54 µM and 2.67 µM
  TGI: > 10 µM and 21.2 µM
[28]
  GI50: > 10 µM and 3.44 µM
  TGI: > 59.1 µM
[29]
  GI50: 2.29 µM and 1.7 µM
  TGI: > 10 µM and 5.52 µM
[30]
  GI50: > 10 µM and 2.83 µM
  TGI: > 100 µM
[31]
  GI50: > 10 µM and 3.27 µM
  TGI: > 94.6 µM
[32]
  GI50: > 10 µM and 4.28 µM
  TGI: > 45.3 µM
[33]
  GI50: > 10 µM and 3.43 µM
  TGI: > 100 µM
[34]
  GI50: > 10 µM and 6.03 µM
  TGI: > 10 µM and 54 µM
[35]
  GI50: > 10 µM and 3.79 µM
  TGI: > 62.6 µM
[36]
  GI50: > 10 µM and 3.5 µM
  TGI: > 58.3 µM
[37]
  GI50: > 10 µM and 5.74 µM
  TGI: > 100 µM
[38]
  GI50: > 10 µM and 3.42 µM
  TGI: > 100 µM
[39]
  GI50: > 10 µM and 4.09 µM
  TGI: > 57.7 µM
[40]
  GI50: > 10 µM and 2.17 µM
  TGI: > 10 µM and 6.93 µM
[41]
  GI50: > 10 µM and 4.54 µM
  TGI: > 100 µM
[42]
  GI50: 0.406 µM and 0.289 µM
  TGI: > 10 µM and 4.95 µM
[43]
  GI50: 1.13 µM and 1.42 µM
  TGI: > 10 µM and 12.2 µM
[44]
  GI50: > 10 µM and 7.13 µM
  TGI: > 10 µM and 27.9 µM
[45]
  GI50: > 10 µM and 3.74 µM
  TGI: > 79 µM
[46]
  GI50: > 10 µM and 4.66 µM
  TGI: > 100 µM
[47]
  GI50: > 10 µM and 5.83 µM
  TGI: > 10 µM and 42.3 µM
[48]
  GI50: 3.97 µM and 1.02 µM
  TGI: > 54.2 µM
[49]
  GI50: > 10 µM and 7.69 µM
  TGI: > 100 µM
[50]
  GI50: 0.27 µM
  TGI: 8.14 µM
[51]
  GI50: > 10 µM and 2.21 µM
  TGI: > 23.7 µM
[52]
  GI50: 9.09 µM and 2.38 µM
  TGI: > 34.5 µM
[53]
  GI50: > 10 µM and 4.36 µM
  TGI: > 100 µM
[54]
  GI50: > 10 µM and 3.76 µM
  TGI: > 10 µM and 39.5 µM
[55]
  GI50: > 10 µM and 4.31 µM
  TGI: > 100 µM
[56]
  GI50: > 10 µM and 4.92 µM
  TGI: > 74.7 µM
[57]
  GI50: 4.74 µM and 1.97 µM
  TGI: > 10 µM and 32.3 µM
[58]
  GI50: 4.3 µM and 2.33 µM
  TGI: > 10 µM and 12.7 µM
